Where two headings read alike, the source gives them in different places.
Tests used:
[1] = tested on: phosphorylation of EGFR (Tyr1068) in NCI-H1975 cell line that harbors the EGFR L858R T790M mutations; assay: NCI-H1975 pEGFR AlphaLISA assay; assay type: cell-based; settings: 4-5 hours incubation, read-out: Ext pEGFR H1975
How it was run: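 Phospho-EGFR Tyr1068 AlphaLISA readout: lysates taken from compound-treated H1975 cells (L858R T790M EGFR) after a 4-5 h exposure at 37 °C. Cells had adhered overnight beforehand. IC50 derived by plotting % pEGFR inhibition against log compound concentration.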

EGFR (L858R T790M C797S) = target: T1, EGFR (L858R T790M C797S) (Homo sapiens, UniProt P00533, C797S/L858R/T790M); assay: Biochemical EGFR inhibition assay (Caliper mobility shift), EGFR LRTMCS mutant; settings: inhibitory activity against EGFR LRTMCS mutant; apparent IC50; read-out: Ext Enz LRTMCS
T1 construct: purchased SignalChem E10-122VG
How it was run: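 Kinase reactions proceed at 25° C. to 10%–20% conversion of total peptide, are terminated with 35 mM EDTA, and the phosphopeptide is resolved from substrate by electrophoretic mobility shift. Apparent IC50 values come from plotting percent activity against log compound concentration.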

[2] = Homo sapiens, NCI-H1975, inhibition of phosphorylation of mutant EGFR in NCI-H1975 cells
[3] = inhibition of phosphorylation of mutant EGFR in NCI-H1975 cells

T1 sequence (P00533 25-1210 T790M/C797S/L858R): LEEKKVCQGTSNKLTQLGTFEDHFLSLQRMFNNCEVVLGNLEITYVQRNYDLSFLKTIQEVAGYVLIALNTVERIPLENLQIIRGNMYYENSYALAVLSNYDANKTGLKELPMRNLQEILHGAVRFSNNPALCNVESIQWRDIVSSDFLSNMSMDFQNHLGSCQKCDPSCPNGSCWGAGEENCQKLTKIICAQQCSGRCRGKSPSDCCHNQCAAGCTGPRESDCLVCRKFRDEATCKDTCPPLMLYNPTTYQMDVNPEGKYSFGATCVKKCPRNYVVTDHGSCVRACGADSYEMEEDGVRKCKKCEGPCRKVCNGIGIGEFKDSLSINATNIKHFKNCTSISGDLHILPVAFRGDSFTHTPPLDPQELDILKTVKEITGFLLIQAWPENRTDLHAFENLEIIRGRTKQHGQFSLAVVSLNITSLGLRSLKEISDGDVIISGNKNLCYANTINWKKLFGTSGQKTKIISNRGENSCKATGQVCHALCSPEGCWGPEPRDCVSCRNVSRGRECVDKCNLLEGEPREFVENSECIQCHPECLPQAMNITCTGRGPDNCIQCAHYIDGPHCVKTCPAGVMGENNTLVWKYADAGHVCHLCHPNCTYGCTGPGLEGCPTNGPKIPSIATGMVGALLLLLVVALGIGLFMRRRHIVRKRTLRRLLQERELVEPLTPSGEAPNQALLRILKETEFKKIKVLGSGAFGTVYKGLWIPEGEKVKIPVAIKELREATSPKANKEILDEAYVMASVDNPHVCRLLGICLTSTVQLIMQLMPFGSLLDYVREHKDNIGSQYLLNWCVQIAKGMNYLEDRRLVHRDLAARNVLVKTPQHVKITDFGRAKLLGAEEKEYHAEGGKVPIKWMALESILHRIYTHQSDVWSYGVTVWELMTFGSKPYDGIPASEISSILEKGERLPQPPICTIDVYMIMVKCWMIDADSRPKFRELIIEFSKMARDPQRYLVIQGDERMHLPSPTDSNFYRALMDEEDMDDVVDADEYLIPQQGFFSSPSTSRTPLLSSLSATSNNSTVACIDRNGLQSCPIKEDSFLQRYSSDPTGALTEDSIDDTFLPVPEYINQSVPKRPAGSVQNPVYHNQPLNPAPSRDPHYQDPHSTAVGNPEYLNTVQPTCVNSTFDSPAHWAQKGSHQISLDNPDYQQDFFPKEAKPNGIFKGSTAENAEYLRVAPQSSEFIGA

| IC50 [1, 2] [nM] | IC50 (EGFR (L858R T790M C797S)) [nM] | IC50 [1, 3] [nM] | SMILES |
| --- | --- | --- | --- |
| 30.1 to 50 | ≤ 15 | – | CC(C)c1ccc(N2CC(CS(C)(=O)=O)C2)c2cnc(Nc3ccnc(N4CC5CCC(C4)O5)n3)cc12 [Compound 12, 8-[3-(methanesulfonylmethyl)azetidin-1-yl]-N-(2-{8-oxa-3-azabicyclo[3.2.1]octan-3-yl}pyrimidin-4-yl)-5-(propan-2-yl)isoquinolin-3-amine] |
| 30.1 to 50 | 20.1 to 30 | – | CC(C)c1cnc(N2CC(CS(C)(=O)=O)C2)c2cnc(Nc3ccnc(N4CCN(C)CC4)n3)cc12 [Compound 3, 8-[3-(methanesulfonylmethyl)azetidin-1-yl]-N-[2-(4-methylpiperazin-1-yl)pyrimidin-4-yl]-5-(propan-2-yl)-2,7-naphthyridin-3-amine] |
| – | 20.1 to 30 | 10.1 to 20 | CN[C@H]1CCN(c2nccc(Nc3cc4c(C(C)C)ccc(N5C[C@H](CS(C)(=O)=O)[C@H]5C)c4cn3)n2)C[C@H]1F (single isomer, unassigned) [Compound 307, N-{2-[(3S,4R)-3-fluoro-4-(methylamino)piperidin-1-yl]pyrimidin-4-yl}-8-[(2R,3S)-3-(methanesulfonylmethyl)-2-methylazetidin-1-yl]-5-(propan-2-yl)isoquinolin-3-amine or N-{2-[(3R,4S)-3-fluoro-4-(methylamino)piperidin-1-yl]pyrimidin-4-yl}-8-[(2R,3S)-3-(methanesulfonylmethyl)-2-methylazetidin-1-yl]-5-(propan-2-yl)isoquinolin-3-amine] |
| 10.1 to 20 | ≤ 15 | – | CO[C@H]1CN(c2nccc(Nc3cc4c(C(C)C)ccc(N5CC(CS(C)(=O)=O)C5)c4cn3)n2)C[C@@H](F)[C@H]1O (racemic) [Compound 147, (3S,4R,5R)-3-fluoro-1-(4-((5-isopropyl-8-(3-((methylsulfonyl)methyl)azetidin-1-yl)isoquinolin-3-yl)amino)pyrimidin-2-yl)-5-methoxypiperidin-4-ol and (3R,4S,5S)-3-fluoro-1-(4-((5-isopropyl-8-(3-((methylsulfonyl)methyl)azetidin-1-yl)isoquinolin-3-yl)amino)pyrimidin-2-yl)-5-methoxypiperidin-4-ol] |
| ≤ 10 | ≤ 15 | – | [2H]C([2H])([2H])O[C@H]1CCN(c2nccc(Nc3cc4c(C(C)C)ccc(N5CC(CS(C)(=O)=O)C5)c4cn3)n2)C[C@H]1F (single isomer, unassigned) [Compound 81] |
| 10.1 to 20 | ≤ 15 | – | Cc1cc(C(C)C)c2cc(Nc3ccnc(N4CC[C@@H](O)[C@@](C)(F)C4)n3)ncc2c1N1CC(CS(C)(=O)=O)C1 (single isomer, unassigned) [Compound 116] |
| ≤ 10 | ≤ 15 | – | CCS(=O)(=O)CC1CN(c2ccc(C(C)C)c3cc(Nc4cnnc(N5CC[C@@H](OC)[C@@H](F)C5)n4)ncc23)C1 [Compound 280, 8-{3-[(ethanesulfonyl)methyl]azetidin-1-yl}-N-{3-[(3S,4R)-3-fluoro-4-methoxypiperidin-1-yl]-1,2,4-triazin-5-yl}-5-(propan-2-yl)isoquinolin-3-amine] |
| ≤ 10 | ≤ 15 | – | CO[C@@H]1[C@H](O)CN(c2nccc(Nc3cc4c(C(C)C)ncc(N5C[C@H](CS(C)(=O)=O)[C@H]5C)c4cn3)n2)CC1(F)F (single isomer, unassigned) [Compound 233, (3R,4R)-5,5-difluoro-1-[4-({8-[(2R,3S)-3-(methanesulfonylmethyl)-2-methylazetidin-1-yl]-5-(propan-2-yl)-2,6-naphthyridin-3-yl}amino)pyrimidin-2-yl]-4-methoxypiperidin-3-ol or (3S,4S)-5,5-difluoro-1-[4-({8-[(2R,3S)-3-(methanesulfonylmethyl)-2-methylazetidin-1-yl]-5-(propan-2-yl)-2,6-naphthyridin-3-yl}amino)pyrimidin-2-yl]-4-methoxypiperidin-3-ol] |
| 30.1 to 50 | ≤ 15 | – | CO[C@H]1CCN(c2nccc(Nc3cc4cccc(N5C[C@H](CS(C)(=O)=O)[C@H]5C)c4cn3)n2)C[C@H]1F [Compound 4, N-{2-[(3R,4S)-3-fluoro-4-methoxypiperidin-1-yl]pyrimidin-4-yl}-8-[(2R,3S)-3-(methanesulfonylmethyl)-2-methylazetidin-1-yl]isoquinolin-3-amine] |
| ≤ 10 | ≤ 15 | – | CO[C@@H]1CCN(c2nccc(Nc3cc4c(C(C)C)ccc(N5CC(CS(C)(=O)=O)C5)c4cn3)n2)C[C@@H]1O (single isomer, unassigned) [Compound 52, (3S,4R)-1-(4-(5-isopropyl-8-(3-(methylsulfonylmethyl)azetidin-1-yl)isoquinolin-3-ylamino)pyrimidin-2-yl)-4-methoxypiperidin-3-ol or (3R,4S)-1-(4-(5-isopropyl-8-(3-(methylsulfonylmethyl)azetidin-1-yl)isoquinolin-3-ylamino)pyrimidin-2-yl)-4-methoxypiperidin-3-ol] |
| – | 20.1 to 30 | 10.1 to 20 | CO[C@H]1CN(c2nccc(Nc3cc4c(C(C)C)ccc(N5C[C@H](CS(C)(=O)=O)[C@H]5C)c4cn3)n2)CC[C@@H]1O (single isomer, unassigned) [Compound 96, (3S,4S)-1-[4-({8-[(2R,3S)-3-(methanesulfonylmethyl)-2-methylazetidin-1-yl]-5-(propan-2-yl)isoquinolin-3-yl}amino)pyrimidin-2-yl]-3-methoxypiperidin-4-ol or (3R,4R)-1-[4-({8-[(2R,3S)-3-(methanesulfonylmethyl)-2-methylazetidin-1-yl]-5-(propan-2-yl)isoquinolin-3-yl}amino)pyrimidin-2-yl]-3-methoxypiperidin-4-ol] |
| 10.1 to 20 | ≤ 15 | – | CC(C)c1ccc(N2CC(CS(C)(=O)=O)C2)c2cnc(Nc3cnnc(N4CCC5(CCO5)CC4)n3)cc12 [Compound 42, 8-[3-(methanesulfonylmethyl)azetidin-1-yl]-N-(3-{1-oxa-7-azaspiro[3.5]nonan-7-yl}-1,2,4-triazin-5-yl)-5-(propan-2-yl)isoquinolin-3-amine] |
| – | 15.1 to 20 | 30.1 to 50 | CC(C)c1cnc(N2CC(CS(C)(=O)=O)C2)c2cnc(Nc3ccnc(N4C[C@H]5COC[C@H]5C4)n3)cc12 [Compound 14, N-{2-[(3aR,6aS)-hexahydro-1H-furo[3,4-c]pyrrol-5-yl]pyrimidin-4-yl}-8-[3-(methanesulfonylmethyl)azetidin-1-yl]-5-(propan-2-yl)-2,7-naphthyridin-3-amine or N-{2-[(3aS,6aR)-hexahydro-1H-furo[3,4-c]pyrrol-5-yl]pyrimidin-4-yl}-8-[3-(methanesulfonylmethyl)azetidin-1-yl]-5-(propan-2-yl)-2,7-naphthyridin-3-amine] |
| ≤ 10 | ≤ 15 | – | CO[C@H]1CCN(c2nccc(Nc3cc4c(C(C)C)cnc(N5CC(CS(C)(=O)=O)C5)c4cn3)n2)C[C@H]1F [Compound 71, N-{2-[(3R,4S)-3-fluoro-4-methoxypiperidin-1-yl]pyrimidin-4-yl}-8-[3-(methanesulfonylmethyl)azetidin-1-yl]-5-(propan-2-yl)-2,7-naphthyridin-3-amine] |
| – | ≤ 15 | 10.1 to 20 | CC(C)c1ccc(N2CC(CS(C)(=O)=O)C2)c2cnc(Nc3ccnc(N4CCC5(OCCO5)[C@H](F)C4)n3)cc12 (single isomer, unassigned) [Compound 181, N-{2-[(6R)-6-fluoro-1,4-dioxa-8-azaspiro[4.5]decan-8-yl]pyrimidin-4-yl}-8-[3-(methanesulfonylmethyl)azetidin-1-yl]-5-(propan-2-yl)isoquinolin-3-amine or N-{2-[(6S)-6-fluoro-1,4-dioxa-8-azaspiro[4.5]decan-8-yl]pyrimidin-4-yl}-8-[3-(methanesulfonylmethyl)azetidin-1-yl]-5-(propan-2-yl)isoquinolin-3-amine] |
| ≤ 10 | ≤ 15 | – | [2H]C([2H])([2H])O[C@@H]1CCN(c2nccc(Nc3cc4c(C5CC5)ccc(N5C[C@H](CS(C)(=O)=O)[C@H]5C)c4cn3)n2)C[C@@H]1F [Compound 315, 5-cyclopropyl-N-(2-((3S,4R)-3-fluoro-4-(^2H3)piperidin-1-yl)pyrimidin-4-yl)-8-((2R,3S)-2-methyl-3-((methylsulfonyl)methyl)azetidin-1-yl)isoquinolin-3-amine] |
| 20.1 to 30 | 15.1 to 20 | – | CCOc1ccc(N2CC(CS(=O)(=O)CC)C2)c2cnc(Nc3ccnc(N4CC[C@@H](O)[C@@](C)(F)C4)n3)cc12 (single isomer, unassigned) [Compound 145] |
| ≤ 10 | 15.1 to 20 | – | CC(C)c1ncc(N2C[C@H](CS(C)(=O)=O)[C@H]2C)c2cnc(Nc3ccnc(N4CC[C@H](OC5CC5)[C@H](F)C4)n3)cc12 [Compound 224, N-{2-[(3R,4S)-4-cyclopropoxy-3-fluoropiperidin-1-yl]pyrimidin-4-yl}-8-[(2R,3S)-3-(methanesulfonylmethyl)-2-methylazetidin-1-yl]-5-(propan-2-yl)-2,6-naphthyridin-3-amine] |
| ≤ 10 | ≤ 15 | – | CC(C)c1ncc(N2C[C@H](CS(C)(=O)=O)[C@H]2C)c2cnc(Nc3ccnc(N4CC[C@@](C)(O)[C@@H](F)C4)n3)cc12 (single isomer, unassigned) [Compound 138] |

Reference: patent US12172983B2, “EGFR inhibitors” (Blueprint Medicines Corporation, priority 2019, dated 2024)
